Data taken from ChEMBL document CHEMBL1201862, “PubChem BioAssay data set” (2004).
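These data come from cells grown in 96-well plates and exposed to compound for 48 hours at five concentrations. Abbreviation: GI50, concentration required for 50% inhibition of growth.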 Active and inactive are the calls of the source. Cut-off read from the data, not from the text of the source: active = GI50 up to about 1.1 µM and inactive = higher.

Assays:
Experiment in all cases: DTP human tumour cell line panel, 48 h
[1] = system: U-251
[2] = system: HT-29
[3] = system: OVCAR-8
[4] = system: NCI/ADR-RES
[5] = system: NCI-H226
[6] = system: SK-MEL-28
[7] = system: NCI-H23
[8] = system: UO-31
[9] = system: SK-MEL-5
[10] = system: IGROV-1
[11] = system: UACC-257
[12] = system: NCI-H522
[13] = system: NCI-H460
[14] = system: COLO 205
[15] = system: 786-0
[16] = system: SW-620
[17] = system: PC-3
[18] = system: CAKI-1
[19] = system: A498
[20] = system: SK-OV-3

SMILES | GI50 [1] | GI50 [2] | GI50 [3] | GI50 [4] | GI50 [5] | GI50 [6] | GI50 [7] | GI50 [8] | GI50 [9] | GI50 [10] | GI50 [11] | GI50 [12] | GI50 [13] | GI50 [14] | GI50 [15] | GI50 [16] | GI50 [17] | GI50 [18] | GI50 [19] | GI50 [20]
COc1ccc(N[S+]([O-])CCCc2ccccc2)cc1 (stereo not drawn) | 72.3 µM (inactive) | > 100 µM (inactive) | > 100 µM (inactive) | 58.1 µM (inactive) | > 100 µM (inactive) | > 100 µM (inactive) | > 100 µM (inactive) | 38.7 µM (inactive) | 44.8 µM (inactive) | 72.6 µM (inactive) | 65 µM (inactive) | 24.1 µM (inactive) | > 100 µM (inactive) | > 100 µM (inactive) | > 100 µM (inactive) | > 100 µM (inactive) | – | – | – | –
CC(=O)OC[C@@]12CC[C@H]3C(C)(C)CCC[C@]3(C)[C@H]1C[C@@H](C1=CC(=O)O[C@H]1O)O2 | – | 2.52 µM (inactive) | 3.18 µM (inactive) | 4.5 µM (inactive) | – | 1.77 µM (inactive) | 2.04 µM (inactive) | 2.1 µM (inactive) | 2.8 µM (inactive) | 2.55 µM (inactive) | 2.12 µM (inactive) | 1.62 µM (inactive) | 8.69 µM (inactive) | 3.81 µM (inactive) | 1.8 µM (inactive) | 4.81 µM (inactive) | 5.43 µM (inactive) | 2.64 µM (inactive) | – | –
NC(=S)N/N=C1/CN(c2ccc(Cl)c(Cl)c2)CC(=O)C1c1nc2ccccc2s1 (stereo not drawn) | 67.1 µM (inactive) | 81.5 µM (inactive) | 76.7 µM (inactive) | – | 78.7 µM (inactive) | 92.3 µM (inactive) | 45.1 µM (inactive) | 38.7 µM (inactive) | > 100 µM (inactive) | > 100 µM (inactive) | 35.2 µM (inactive) | 36.1 µM (inactive) | > 100 µM (inactive) | > 100 µM (inactive) | > 100 µM (inactive) | > 100 µM (inactive) | – | > 100 µM (inactive) | > 100 µM (inactive) | > 100 µM (inactive)
CC(C)(Br)C(Br)CCC1(C(Br)CBr)CO1 (stereo not drawn) | > 10 µM (inactive) | > 10 µM (inactive) | > 10 µM (inactive) | – | > 10 µM (inactive) | > 10 µM (inactive) | > 10 µM (inactive) | > 10 µM (inactive) | > 10 µM (inactive) | > 10 µM (inactive) | – | > 10 µM (inactive) | – | > 10 µM (inactive) | > 10 µM (inactive) | > 10 µM (inactive) | > 10 µM (inactive) | > 10 µM (inactive) | > 10 µM (inactive) | > 10 µM (inactive)
ClC(Cl)=C1C(=C(Cl)Cl)C(Cl)(Cl)C1(Cl)Cl | 5.41 µM (inactive) | 2.02 µM (inactive) | 1.49 µM (inactive) | – | – | 1.44 µM (inactive) | 1.04 µM (active) | 3.05 µM (inactive) | 2.82 µM (inactive) | 5.55 µM (inactive) | 3.51 µM (inactive) | 0.0612 µM (active) | 3.93 µM (inactive) | 2.92 µM (inactive) | 1.07 µM (active) | 1.18 µM (inactive) | 2.31 µM (inactive) | 2.89 µM (inactive) | 11.6 µM (inactive) | 14.9 µM (inactive)
CCCC(=O)/C=C/S/C=C/C(=O)CCC | 14.3 µM (inactive) | 3.26 µM (inactive) | 2.65 µM (inactive) | 3.18 µM (inactive) | 3.72 µM (inactive) | 3.96 µM (inactive) | 2.84 µM (inactive) | 4.13 µM (inactive) | 4.26 µM (inactive) | 21.6 µM (inactive) | 2.27 µM (inactive) | 1.71 µM (inactive) | 5.3 µM (inactive) | 2.23 µM (inactive) | 2.1 µM (inactive) | 2.28 µM (inactive) | – | 2.86 µM (inactive) | – | 34.4 µM (inactive)
